Data: patent publication US20240124424A1, “SOLID FORMS OF (5S)-CYCLOPROPYL-5-[3-[(3S)-4-(3,5-DIFLUOROPHENYL)-3-METHYL-PIPERAZIN-1-YL]-3-OXO-PROPYL]IMIDAZOLIDINE-2,4-DIONE” (Galapagos NV, priority 2020, published 2024)
“And” between values parts separate entries of the source, which are not always exact repeats. Equal values may be shown once.

Key:
[1] = Stability study of the solid forms; type: physicochemical; settings: for Stability of solid forms under different conditions: result in words
[2] = PK study in human, tablets of Form I and Form II; type: in vivo; settings: fasted, 300 mg oral
Protocol: Following a single 300 mg oral administration of Cpd 1 under fasted and/or fed conditions to healthy male subjects (18 subjects per group) as 30% or 50% drug load tablets of crystalline form I and crystalline form II, concentrations of Cpd 1 human plasma concentrations were determined using protein precipitation extraction with liquid chromatography with tandem mass spectrometry (LC-MS/MS) detection.
The lower limit of quantification was 1 ng/mL. In each analytical run, duplicate QC samples were analyzed along with the study samples.
Blood samples (2 mL) for determination of Cpd 1 in plasma were collected at various time points into tubes containing lithium heparin and were immediately chilled (ice bath). Within 30 min after blood collection, the plasma was separated in a refrigerated centrifuge at 4° C. for 10 min at circa 1,500 g.
Predose PK samples were collected within 15 min predose then at the following time points: 0.5 h, 1 h, 1.5 h, 2 h, 2.5 h, 3 h, 4 h, 5 h, 6 h, 8 h, 12 h, 16 h, 24 h, 48 h, 72 h. For all PK samples between 0.5 and 16 h, a window of ±5 min was allowed; for 24- to 72-h samples, a window of ±30 min was allowed.
All statistical analyses were performed using SAS® version 9.4 (or higher) (SAS Institute, Cary, NC, USA) and/or Phoenix WinNonLin (version 8 or higher) software.
All relevant data were documented using summary tables, figures, and subject data listings. […]

Balb/c mice = assay: Protein overload nephrectomy model; type: in vivo; settings: day 14, individual mice, Cpd 1 240 mg/kg/day b.i.d. or lisinopril 10 mg/kg/day, oral gavage; for proteinuria / urine creatinine: 24 h urine; for Protein/creatinine: urine ratio
Protocol: This animal model allows to assess the efficacy of the compound of the invention in renal disease, including renal fibrosis.
This study was undertaken in Balb/c mice (Charles River).
Mice underwent a left unilateral nephrectomy via a short flank incision under anaesthesia.
Sham control mice received an incision only . The mice were allowed to recover from surgery for 7 days.
Drug treatment commenced one day prior to initiation of protein overload.
Each mouse received either Cpd 1 240 mg/kg/day b.i.d. (dosed daily at 8h00 and 15h30), or 10 mg/kg/day Lisinopril (one dose Lisinopril plus one dose of vehicle), or vehicle alone (0.5% methyl cellulose containing 2% Tween 80—two doses) by oral gavage.
Sham mice received vehicle alone. Protein overload was initiated by daily intraperitoneal injections of sterile filtered 450 mg/ml BSA solution in saline (Sigma cat A4919: low endotoxin) starting from 2 mg/g body weight on day one and increasing to 15 mg/g on day 7 until day 14 according to schedule below:
Sham mice received equivalent volumes of saline. After the last injection, mice were housed in metabolic cages for 24 h urine collection.
The mice were then anaesthetized before sacrifice. Blood sample was collected. The remaining right kidneys were perfused with PBS (Sigma 806552)+10 mM EDTA (Invitrogen 15575-02—stock 0.5M) after which they were excised and transverse dissected.
All data were expressed as means±SEM. Results were analysed using GraphPad Prism 8. D'Agostino-Pearson omnibus normality tests were performed to assess normality for data sets >8, while a Shapiro-Wilk test was applied to data sets <8. For multiple comparisons, a one-way ANOVA with Tukey's post hoc correction (parametric) or a Kruskal-Wallis test with Dunn's post hoc test (non-parametric data) were used. ELISA standard curves were plotted using a Sigmoidal4PL fit where x was the log of the standard concentration. Relative mRNA expression levels were calculated according to the Livak equation as 2-ΔCt. A confidence interval of 0.95, p≤0.05, was applied for all statistical tests.
The following endpoints were measured: • Urine Protein concentration mg/mL, • Urine protein/mg creatinine (mg/mg) • serum protein concentration (mg/mL), • urine creatinine concentration (mg/dL)(mg/mL) • Serum creatinine concentration (mg/dL) • Serum urea concentration (mg/dL) • Versikine, NITEGE, ARGS dot blots • Immunohistochemistry: ADAMTS5, Collagen I, Collagen IV, fibronectin, CD45, complement C3, F4/80

mdx mice = assay: Duchenne muscular dystrophy mdx model; type: in vivo; parameters: Average force output (grip strength) / Tissue volume / Bone volume: unit not given here; settings: mean, Cpd 1 120 mg/kg p.o. b.i.d., prednisolone 5 mg/kg p.o. qd; for Av. g/g BW (average force output/g of body weight) / Average force output (grip strength): n = 15
Excerpt: The male mdx mice is the most used animal model for pre-clinical Duchenne muscular dystrophy (DMD) research.
Five-week-old mdx mice (Animal Resource Centre; Perth, WA, Australia) were allowed to acclimatise for 1 week to their surroundings, before being randomly allocated to one of four treatment groups or an untreated control group (15 animals per group) as described in the table below. At the start of the study, these groups were matched for mouse body weight.
The untreated control mdx mice were restrained throughout the study. Following 1-week acclimatisation, this group of mice also have baseline measurements of grip strength and body composition taken, which were repeated at ˜10 weeks and ˜15 weeks of age. Furthermore, these mice were weighed on a regular basis and their urine was collected at ˜6, ˜10 and ˜15 weeks of age. […]
Bone structure was evaluated via μCT analysis of cortical and trabecular bone on the femur.

BALB/c (H2^d) mice = assay: Graft versus host (cGvHD) lung model; type: in vivo; settings: 120 mg/kg p.o. b.i.d., statistically significant
Excerpt: In this cGvHD model, fibrosis was induced in BALB/c (H2^d) mice by allogeneic transplantation of bone marrow cells and splenocytes from B10.D2 (H2^d) donor mice (minor HLA mismatch). The recipient mice develop inflammation-driven dermal and pulmonary fibrosis resembling patients with rapidly progressive diffuse cutaneous systemic sclerosis (Zen et al., 2012).
The treatment was provided only after the onset of first clinical symptoms of sclerodermatous cGvHD.
The following groups with each eight mice were used in this study • Syngeneically transplanted, placebo-treated control group: Syngeneic bone marrow and splenocyte transplantation (BALB/c (H2^d)→BALB/c (H2^d)). Application of methyl cellulose 0.5% from day 21 to day 56 post transplantation. • Vehicle-treated fibrosis group: Allogeneic bone marrow and splenocyte transplantation (B10.D2 (H2^d)→BALB/c (H2^d)). Application of methyl cellulose 0.5% from day 21 to day 56 post transplantation • Control group to assess pretreatment levels of fibrosis induced by allogeneic transplantation: Allogeneic bone marrow and splenocyte transplantation (B10.D2 (H2^d)→BALB/c (H2^d)). Sacrifice at day 21, before treatment was initiated in the other groups. • Treatment group: Allogeneic bone marrow and splenocyte transplantation (B10.D2 (H2^d)→BALB/c (H2^d)). Application of a test compound of the invention from day 21 to day 56 post transplantation. • Positive control group: Allogeneic bone marrow and splenocyte transplantation (B10.D2 (H2^d)→BALB/c (H2^d)). Application of 50 mg/kg qd nintedanib from day 21 to day 56 post transplantation.
Animals were sacrificed 2 h post last dose, and samples of skin (3 mm punch biopsies), lung, spleen and blood were collected for histology and gene expression analysis.
The anti-fibrotic effects on skin were analysed by determination of dermal thickness, quantification of lesional collagen and staining for myofibroblasts.
In case of positive effects on skin fibrosis, effects on pulmonary fibrosis were analysed by Ashcroft scoring, hydroxyproline content, and quantification of the collagen covered area using Sirius red staining
Based on individual animal raw data, the means for each group were determined and percent change from disease controls was calculated. Treatment groups were compared to disease controls using a one-way analysis of variance (1-way ANOVA) with a Dunnett's post-hoc analysis for measured (parametric) data or a Kruskal-Wallis test with a Dunn's post-hoc analysis for scored (non-parametric) data.

[3] = storage 25° C./60% RH - 12 months
[4] = storage 40° C./75% RH - 6 months

C[C@H]1CN(C(=O)CC[C@@]2(C3CC3)NC(=O)NC2=O)CCN1c1cc(F)cc(F)c1 [Form II, (5S)-cyclopropyl-5-[3-[(3S)-4-(3,5-difluorophenyl)-3-methyl-piperazin-1-yl]-3-oxo-propyl]imidazolidine-2,4-dione]
Stability of solid forms under different conditions [1]: stable | Stability [1, 3]: 99.3% | Stability [1, 4]: 98.7% | increase in plasma peak exposure (Cmax) compared to polymorphic form I ([2]; 30% load tablet): 34% | increase in plasma peak exposure (Cmax) compared to polymorphic form I ([2]; 50% load tablet): 40%

C[C@H]1CN(C(=O)CC[C@@]2(C3CC3)NC(=O)NC2=O)CCN1c1cc(F)cc(F)c1 [Form I, (5S)-cyclopropyl-5-[3-[(3S)-4-(3,5-difluorophenyl)-3-methyl-piperazin-1-yl]-3-oxo-propyl]imidazolidine-2,4-dione]
Stability of solid forms under different conditions [1]: stable | Stability [1, 3]: 100% | Stability [1, 4]: 100%

NCCCC[C@H](N[C@@H](CCc1ccccc1)C(=O)O)C(=O)N1CCC[C@H]1C(=O)O [lisinopril, reference compound]
proteinuria (Balb/c mice): 59.1 mg/mL and 128.8 mg/mL and 55.8 mg/mL and 197.6 mg/mL and 71.7 mg/mL and 264.6 mg/mL and 284 mg/mL and 82.1 mg/mL and 80 mg/mL and 79 mg/mL | urine creatinine (Balb/c mice): 0.467 mg/mL and 0.378 mg/mL and 0.32 mg/mL and 0.36 mg/mL and 0.3 mg/mL and 0.34 mg/mL and 0.41 mg/mL and 0.38 mg/mL and 0.22 mg/mL and 0.42 mg/mL | serum creatinine (Balb/c mice): 0.39 mg/dL and 0.41 mg/dL and 0.34 mg/dL and 0.35 mg/dL and 0.25 mg/dL and 0.57 mg/dL (2×) and 0.46 mg/dL and 0.55 mg/dL and 0.54 mg/dL | Protein/creatinine (Balb/c mice): 127 and 341 and 174 and 552 and 238 and 774 and 700 and 216 and 364 and 188

C[C@H]1CN(C(=O)CC[C@@]2(C3CC3)NC(=O)NC2=O)CCN1c1cc(F)cc(F)c1 [Amorphous, (5S)-cyclopropyl-5-[3-[(3S)-4-(3,5-difluorophenyl)-3-methyl-piperazin-1-yl]-3-oxo-propyl]imidazolidine-2,4-dione]
Stability of solid forms under different conditions [1]: stable | Stability [1, 3]: 100% | Stability [1, 4]: 99.3%

C[C@H]1CN(C(=O)CC[C@@]2(C3CC3)NC(=O)NC2=O)CCN1c1cc(F)cc(F)c1 [Cpd 1, (5S)-cyclopropyl-5-[3-[(3S)-4-(3,5-difluorophenyl)-3-methyl-piperazin-1-yl]-3-oxo-propyl]imidazolidine-2,4-dione]
proteinuria (Balb/c mice): 75.2 mg/mL and 54.7 mg/mL and 187 mg/mL and 79.4 mg/mL and 145 mg/mL and 72.4 mg/mL and 143.5 mg/mL and 229.6 mg/mL and 163 mg/mL and 44.4 mg/mL | urine creatinine (Balb/c mice): 0.33 mg/mL and 0.34 mg/mL and 0.38 mg/mL and 0.25 mg/mL (2×) and 0.29 mg/mL and 0.26 mg/mL and 0.297 mg/mL and 0.384 mg/mL and 0.28 mg/mL | serum creatinine (Balb/c mice): 0.43 mg/dL and 0.4 mg/dL and 0.47 mg/dL and 0.44 mg/dL and 0.41 mg/dL and 0.46 mg/dL and 0.39 mg/dL and 0.38 mg/dL and 0.3 mg/dL and 0.37 mg/dL | Protein/creatinine (Balb/c mice): 229 and 160 and 497 and 321 and 581 and 250 and 550 and 774 and 425 and 159 | BV/TV (bone volume fraction) (mdx mice; after treatment): 36.09% | Bone volume (mdx mice; after treatment): 0.80 | Tissue volume (mdx mice; after treatment): 2.21 | Av. g/g BW (average force output/g of body weight) (mdx mice; mid treatment (4 weeks)): 3.72 g/g | Average force output (grip strength) (mdx mice; mid treatment (4 weeks)): 91.88 | Av. g/g BW (average force output/g of body weight) (mdx mice; post treatment (9 weeks)): 3.86 g/g | Average force output (grip strength) (mdx mice; post treatment (9 weeks)): 88.24 | Av. g/g BW (average force output/g of body weight) (mdx mice; pre-treatment): 2.86 g/g | Average force output (grip strength) (mdx mice; pre-treatment): 61.13 | reduction of Hydroxyproline content in skin (BALB/c (H2^d) mice): −8.3% | decrease of Ashcroft score compared to the vehicle group (BALB/c (H2^d) mice; lung): −1,3 fold | decrease of collagen-covered lung area compared to the vehicle group (BALB/c (H2^d) mice; lung): −1,2 fold | reduction of myofibroblast count (BALB/c (H2^d) mice; skin): −35%

C[C@]12C=CC(=O)C=C1CC[C@@H]1[C@@H]2[C@@H](O)C[C@@]2(C)[C@H]1CC[C@]2(O)C(=O)CO [prednisolone, reference compound]
BV/TV (bone volume fraction) (mdx mice; after treatment): 29.84% | Bone volume (mdx mice; after treatment): 0.70 | Av. g/g BW (average force output/g of body weight) (mdx mice; mid treatment (4 weeks)): 3.44 g/g | Average force output (grip strength) (mdx mice; mid treatment (4 weeks)): 84.86 | Av. g/g BW (average force output/g of body weight) (mdx mice; post treatment (9 weeks)): 2.93 g/g | Average force output (grip strength) (mdx mice; post treatment (9 weeks)): 78.84 | Av. g/g BW (average force output/g of body weight) (mdx mice; pre-treatment): 2.83 g/g | Average force output (grip strength) (mdx mice; pre-treatment): 60.55
